The source of these data is publication PMC3700072, “Synthesis, Anti-Inflammatory, and Ulcerogenicity Studies of Novel Substituted and Fused Pyrazolo[3,4-d]pyrimidin-4-ones” (Scientia Pharmaceutica, 2013).

For one series, the system named is gastric mucosa of rats. In words: gastric ulcerogenic effect (Meshali's method, ulcer index by Robert's method). Also on record: key to Ulcer index: ulcer index = %incidence/10 + avg no. of ulcers + avg severity (0–4). The format is in vivo, rat. How it is done: The ulcer index was calculated according to Robert’s method.
Adult male albino rats weighing between 100 and 120 g were used. Animals were divided into groups of five animals each. Rats were fasted 20 h before drug administration. Water was given ad libitum. The control group received the vehicle (1% gum acacia) orally. Other groups received indomethacin or test compounds orally in a dose of 10 mg/kg body weight suspended in 1% gum acacia. Rats were fasted for 2 h, allowed to feed for 2 h, then fasted for another 20 h. Rats were given another two doses on the second and third days. On the fourth day, rats were sacrificed by diethyl ether; the stomach of each rat was removed, opened along the greater curvature, and rinsed with cold 0.9% saline. The stomach was stretched, by pins, on a corkboard and inspected with a 3x magnifying lens for any evidence of mucosal damage. The ulcer index was calculated according to Robert’s method. The number of mucosal damage (red spots) was counted and their severity (ulcerogenic severity) was graded from 0 to 4 according to the following score assignment:
The following figures were calculated: • –– % Incidence/10 = [number of rats showing ulcer of any grade divided by total number of rats in the group × 100]/10. • –– Average number of ulcers: number of ulcers in the group/total number of rats in the group. • –– Average severity: Σ [each ulcer multiplied by its score of severity]/number of ulcers in the group. • Ulcer index = the sum of the 3 figures. • Results are tabulated in Table 2.

The test system of series [1] is carrageenan-induced rat paw edema. In words: carrageenan-induced rat paw edema test. The class given is in vivo. Also noted: Mean increase in edema weight ± SEM: unit not given here. The settings on record: rats, 10 mg/kg intraperitoneally, 4 h after carrageenan. The method, then:
The in vivo anti-inflammatory effects of the newly synthesized pyrazolopyrimidine derivatives were assessed by utilizing the functional model of carrageenan-induced rat paw edema using indomethacin as the reference drug. Mean changes and the percent increase in paw edema weight of animals pretreated with the tested compounds after 4 h from the induction of inflammation were measured, together with the percent inhibition of induced rat paw edema by the tested compounds. The anti-inflammatory activity (relative potency) of the tested compounds relative to that of indomethacin was also calculated (Table 1) (Fig. 2).
The in vivo carrageenan-induced rat paw edema model of inflammation was used to evaluate the anti-inflammatory properties of the newly synthesized compounds according to the previously reported Winter et al. method.
Adult male albino rats weighing 100–120 g (obtained from the animal house of the department of Physiology, Faculty of Medicine, Alexandria University) were used throughout the work. Animals were randomly divided into groups of six rats each. They were kept in an animal house under standard conditions of light and temperature with free access to food and water ad libitum and allowed to be accustomed to their environment for two days before testing.
Indomethacin, used as a reference standard (Khahira for Pharmaceutical and Chemical Industry, Cairo, Egypt), and the test compounds were dissolved in DMSO and were injected intraperitoneally at a dose level of 10 mg/kg body weight. Control animals, on the other hand, were intraperitoneally injected with appropriate volume of DMSO only. After one hour of the above treatment, an inflammatory edema in the right hind paw of all animals was induced by subcutaneous injection of 0.05 ml of freshly prepared solution of 1% carrageenan (λ-Carrageenan Sigma–Aldrich Corp. St. Louis, MO, USA) in sterile normal saline (0.9%), into the subplantar tissue of the paw. An equal volume of saline was injected to the left hind paw and served as internal control for the degree of inflammation in the right hind paw.
Four hours after carrageenan injection, animals were decapitated and both the right and left hind paws were excised at a standard point and weighed. The difference in weight from edema between right and left paws was taken as a measure of the degree of inflammation for each animal. The mean increase in weight of the carrageenan-injected paw over the other paw in each group was measured and the percent increase of edema was calculated. The anti-inflammatory efficacy of the tested compounds was assessed by comparing the change in paw weight in the treated animals with that in control animals (treated with DMSO only) and expressed as a percent inhibition of the edema (percent protection against inflammation), calculated according to the following equation: % Inhibition of edema=(1-Wt/Wc)×100 where Wt is the mean increase in paw weight in rats treated with the test compounds and Wc is the mean increase in paw weight in the control group. The anti-inflammatory activity of the test compounds relative to that of indomethacin was also determined (Table 2).
In the anti-inflammatory study, data obtained were expressed as the mean ± standard error (SEM). Statistical significance was determined by comparing the values of the test compounds and the standard with those obtained from the control group of animals using One-way ANOVA with Dunnett’s post-test using the GraphPad Prism version 3.00 for Windows (GraphPad Software, San Diego California USA, www.graphpad.com). The difference in results was considered significant if P < 0.001.
(The carrageenan paw model is a standard test of acute inflammation.)

A further series concerns the target cyclooxygenase-2. Also on record: method as in PMID 15044055. Particulars: intact cell assays; cited from earlier work.
In a further series the target is cyclooxygenase-1. Also noted: method as in PMID 15044055. The settings on record: intact cell assays; cited from earlier work.

Broadly, the melting point is the temperature, or range, at which the solid turns liquid. In turn, `Cc1nc2c(cnn2-c2ccccc2)c(=O)n1N=c1scc(-c2ccc(Cl)cc2)n1-c1ccc(Cl)cc1` [Compound 11f, 5-{[3,4-Bis(4-chlorophenyl)-1,3-thiazol-2(3H)-ylidene]amino}-6-methyl-1-phenyl-1,5-dihydro-4H-pyrazolo[3,4-d]pyrimidin-4-one] came in with a melting point of 272 to 275 °C. Besides, the “% ulceration in the population of test animals” value with gastric mucosa of rats (oral 10 mg/kg) is 40–60%. Also, the “Average No. of ulcer” value with gastric mucosa of rats (oral 10 mg/kg on three days) turned out to be 1.6. In the series on gastric mucosa of rats (oral 10 mg/kg on three days, 5 animals per group), the “% Incidence/10” value is 4. For the same molecule, in the series on gastric mucosa of rats (oral 10 mg/kg on three days, indomethacin = 100, 10 mg/kg), the “% Ulcerogenicity relative to indomethacin” value is 41.13%. In addition, in the series with gastric mucosa of rats (oral 10 mg/kg on three days, score 0 to 4), the Average severity amounted to 1.5. Further, in the series with gastric mucosa of rats (oral 10 mg/kg on three days, sum of the 3 figures), the Ulcer index came to 7.10. The inhibition in vivo at 10 mg/kg in series [1] (Rattus norvegicus, ip, 4 h, read-out: %Inhibition of Paw edema from control group (edema reduction)) turned out to be 65%. For the same molecule, the change in vivo at 10 mg/kg in series [1] (Rattus norvegicus, ip, N = 6, read-out: Mean % increase in edema weight ± SEM) was found to be 9.29 ± 0.961%. In addition, the “Mean increase in edema weight ± SEM” value in series [1] (N = 6) is given as 0.55 ± 0.043. Besides, the “% Activity relative to indomethacine” value in series [1] (indomethacin = 100) is reported as 95.33%.

What is called IC50 is the concentration at which inhibition is half-maximal. Take `CN(C)c1nc(NCc2ccccc2)c2cnn(C(C)(C)C)c2n1` [II]: the half-maximal inhibitory concentration (IC50) was 0.0009 µM on cyclooxygenase-2 and 0.0596 µM on cyclooxygenase-1.
